{"source": "patent US20100168228A1", "about": "“NOVEL CHEMOTHERAPEUTIC AGENTS AGAINST INFLAMMATION AND CANCER” (RELIANCE LIFE SCIENCES PVT. LTD., priority 2006, published 2010)", "key": {"NF-κB": {"system": "NF-κB", "assay": "NF-κB activation assay, RAW 264.7", "assay_type": "cell-based, mouse", "conditions": "RAW 264.7, 100 ng/ml LPS 30 min", "procedure": "FIG. 4: Effect of CAMVE on NF-κB activation in different cell lines. A. HeLa, MCF-7, U937, were incubated at 37° C. for 3 h with 15 μM dose of CAMVE and then stimulated with 0.1 nM TNF for 30 min. After these treatments, nuclear extracts were prepared and assayed for NF-κB using BD Transfactor ELISA method. B. RAW 264.7 cells pretreated with indicated doses of CAMVE were stimulated with 100 ng/ml LPS for 30 min and assayed for NF-κB activation.\nCell pellet was resuspended in lysis buffer (10 mM HEPES, pH 7.9, 1.5 mM MgCl2, 10 mM KCl, 1 mM PMSF, 1 mMDTT, 0.5% NP 40, 0.1 mM EGTA and 0.1 mM EDTA) and allowed to swell on ice for 15 min, followed by centrifugation at 3300×g for 20 min. The cell pellet was resuspended in a volume of lysis buffer equal to the cell pellet volume. The cell suspension was slowly drawn down into a syringe and ejected the content in a single stroke. Disrupted cells were incubated for 15 min on ice, and the disrupted cell suspension was centrifuged at 10,000×g for 20 min at 4° C. […]\nThe assay was performed by using wells coated with oligonucleotides having the consensus DNA binding sites for the specific transcription factors. […] Bound transcription factor was detected by a specific Primary Antibody. […] After addition of the substrate, the Absorbance was recorded at 655 nm."}, "p65": {"system": "p65", "assay": "Nuclear translocation of p65 by flow cytometry, Jurkat", "assay_type": "cell-based, human", "procedure": "FIG. 5: Effect of CAMVE on TNF or LPS induced nuclear translocation of p65. A. HeLa cells either untreated or pretreated with 15 μM CAMVE for 3 h at 37° C. were stimulated with 0.1 nM TNF and immunocytochemical analysis were performed as described in “Materials and Methods”. B. Jurkat (5×10^5 cells/ml) cells were pretreated with indicated concentrations of CAMVE for 3 h and then stimulated with 0.1 nM of TNF for 30 min or 100 ng/ml of SA-LPS (serum activated LPS) for 15 min. After these treatments, cells were washed twice with PBS and nuclei were isolated by incubating the cells with […] Pipes-Triton buffer for 30 min at 4° C. Nuclei were stained for p65 and analyzed using FACS. (i). Representative histogram overlay showing TNF or LPS stimulated (1), basal (2), CAMVE stimulated (3), p65 staining in the nucleus. (ii). Ordinates gives the Isotype-corrected MFI for various treatments.\nThe assay was performed as described previously (Blaecke, A., Yves, D., Herbault, N., Jeannin, P., Bonnefoy, J. V., Beck, A., Aubry, J. P. (2002) Cytometry 48, 71-79). Briefly after stimulation, cells were washed twice with PBS. Nucleus was prepared by incubating the cells with 200 ul Pipes-Triton buffer for 30 min at 4° C. […] After washing, the nuclei were incubated with secondary FITC conjugated goat anti-mouse antibody (Sigma) for additional 30 mins at 4° C. and analysed using FACS. […]"}, "ICAM1 (CD54)": {"system": "ICAM1 (CD54)", "assay": "ICAM 1 (CD 54) expression by flow cytometry", "assay_type": "cell-based, human", "procedure": "FIG. 7: Effect of CAMVE on TNF or LPS induced ICAM1 (CD54) expression. Cells (5×10^5 cells/ml) were pretreated with different concentrations of CAMVE for 3 h and then treated with TNF (0.1 nM) or SA-LPS (100 ng/ml) for 12 h at 37° C. in a CO2 incubator. Treated cells were washed and stained with anti human CD54-FITC conjugated antibody to measure the amount of surface ICAM1 expression. The relative mean fluorescence intensity (MFI) was measured using FACS Calibur (BD). A. Representative histogram overlay showing TNF or LPS stimulated (1), basal (2), CAMVE pretreated (3). B. Values are given as MFI (mean±S.D.) in percent of basal expression, which was set to 100%.\nCells were pretreated with different concentrations of CAMVE for 3 h and then treated with 0.1 nM of TNF or 100 ng/ml SA-LPS for 12 h at 37° C. in a CO2 incubator. Extent of ICAM 1 expression was detected by staining the washed cells with FITC-labeled monoclonal antibody which binds to the cells expressing the CD 54 (ICAM 1). Unbound FITC-conjugated antibody is then washed from the cells and the cells were resuspended in 0.5 ml of 1% paraformaldehyde, and analyzed using Flow Cytometer (B D FACS Calibur). Cells CD54 structure is fluorescently stained, with the intensity of staining is directly proportional to the density of CD54."}, "Jurkat cells": {"system": "Jurkat cells", "assay": "Nuclear staining assay (propidium iodide), Jurkat", "assay_type": "cell-based, human", "conditions": "24 h", "procedure": "Nuclear staining assay: After treatment with the compound for 24 h, Jurkat cells were washed once with ice-cold EDTA/PBS (5 mM) and fixed with 70% ethanol for 1 h at RT. Fixed cells were placed on slides and stained with PI (5 μg/ml) with RNase A (1 mg/ml) for 20 mins. After decolourization with water, nuclear morphology of cells was examined by fluorescence microscopy."}}}
{"smiles": "COC(=O)c1ccc(OC(=O)/C=C/c2ccc(O)c(O)c2)c(OC)c1", "note": "[compound 1, Methyl 4-{[(2E)-3-(3,4-dihydroxyphenyl)prop-2-enoyl]oxy}-3-methoxybenzoate]", "values": [{"measurement": "LPS induced NF-κB activation", "setting": "NF-κB", "value": "inhibited NF-κB activation in murine cells"}, {"measurement": "TNF or LPS mediated p65 translocation", "setting": "p65; Jurkat nuclei, pretreated 3 h, 0.1 nM TNF or 100 ng/ml SA-LPS", "value": "blocked with CAMVE pretreatments"}, {"measurement": "basal nuclear p65 staining", "setting": "p65; Jurkat, CAMVE alone", "value": "not altered by incubation with CAMVE alone"}, {"measurement": "basal ICAM1 expression", "setting": "ICAM1 (CD54); CAMVE alone", "value": "not altered by incubation with CAMVE alone"}, {"measurement": "TNF or LPS induced ICAM1 expression", "setting": "ICAM1 (CD54); pretreated 3 h, TNF 0.1 nM or SA-LPS 100 ng/ml 12 h", "value": "blocked in CAMVE pretreated cells"}]}
{"smiles": "COc1cc([C@@H]2Oc3c(OC)cc(/C=C/C(=O)O)cc3[C@H]2C(=O)O)ccc1O", "note": "[compound 27, 5-[(E)-2-carboxyvinyl]-2β-(4-hydroxy-3-methoxyphenyl)-7-methoxy-2,3-dihydro-1-benzofuran-3α-carboxylic acid]", "values": [{"measurement": "nuclear morphology after propidium iodide staining", "setting": "Jurkat cells", "value": "typical apoptotic nuclei"}]}
